US20210238162A1, “CHEMICAL COMPOUNDS” (GlaxoSmithKline Intellectual Property Development Limited, priority 2015, published 2021)
Structures can show the parent of a compound that is named as a salt.

Each compound was assayed against T1, haematopoietic prostaglandin D synthase (H-PGDS) (Homo sapiens, UniProt O60760) (assay: H-PGDS RapidFire High Throughput Mass Spectrometry Assay). Conditions: H-PGDS RapidFire MS assay, mean pIC50; read-out: Potency Range (mean pIC50) (converted).
T1 construct: Full length human H-PGDS cDNA (Invitrogen Ultimate ORF IOH13026) was amplified by PCR; made in house; host or cells: E. coli BL21 (DE3*), vector pET22b+
T1 sequence (O60760 whole entry): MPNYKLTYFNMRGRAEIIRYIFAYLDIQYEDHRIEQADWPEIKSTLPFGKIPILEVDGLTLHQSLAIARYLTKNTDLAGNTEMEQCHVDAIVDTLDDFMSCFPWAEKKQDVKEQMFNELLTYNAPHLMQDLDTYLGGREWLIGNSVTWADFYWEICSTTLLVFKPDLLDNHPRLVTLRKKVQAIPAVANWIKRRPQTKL
Type: biochemical
Protocol: The H-PGDS RapidFire™ mass spectrometric assay monitors conversion of prostaglandin H2 (PGH2) to prostaglandin D2 (PGD2) by haematopoietic prostaglandin D synthase (H-PGDS). In the assay format described here, the substrate (PGH2) is formed in situ by the action of cyclooxygenase-2 on arachidonic acid. This first step is set up to be fast, and generates a burst of PGH2 at ˜10 μM. The PGH2 is then further converted to PGD2 by the H-PGDS enzyme. […] Plates are then read on the RapidFire™ high throughput solid phase extraction system (Agilent) which incorporates a solid phase extraction step coupled to a triple quadrupole mass spectrometer (AB SCIEX). Relative levels of PGD2 and PGF2α, which acts as a surrogate for substrate, are measured and a percent conversion calculated.
Full length human H-PGDS cDNA (Invitrogen Ultimate ORF IOH13026) was amplified by PCR with the addition of a 5′ 6-His tag and TEV protease cleavage site. The PCR product was digested with Ndel and Xhol and ligated into pET22b+ (Merck Novagen®). Expression was carried out in E. coli strain BL21 (DE3*) using auto-induction Overnight Express™ Instant TB medium (Merck Novagen®) supplemented with 1% glycerol. The culture was first grown at 37° C. and the temperature was reduced to 25° C. when OD600 reached 2.0. Cells were harvested by centrifugation after a further 18 hr. 10 g of E. coli cell pellet was suspended to a total volume of 80 mL in lysis buffer (20 mM Tris-Cl pH 7.5, 300 mM NaCl, 20 mM imidazole, 5 mM β-mercaptoethanol, 10% glycerol). 1 mg/mL protease inhibitors (Protease Inhibitor Cocktail Set Ill, Merck Calbiochem®) and 1 mg/mL lysozyme were added to the cell suspension. The suspension was then sonicated for 5 min (UltraSonic Processor VCX 750, Cole-Parmer Instrument Co.) with a micro probe (50% amplitude, 10 sec on/off) and then centrifuged at 100,000 g for 90 min (at 4° C.). The supernatant was loaded onto a Ni-NTA HiTrap column (5 mL, GE Heathcare, pre-equilibrated in lysis buffer). The column was washed with 10 column volumes of lysis buffer and eluted with lysis buffer containing 500 mM imidazole. The pooled protein peak fractions were concentrated using a 10 kDa centrifugal filter at 3500 g and 4° C. (Amicon Ultra-15 centrifugal filter unit with Ultracel-10 membrane from Millipore). Further purification of the concentrated protein was carried out using gel filtration chromatography on a HiLoad 26/600 Superdex 75 preparative grade column (GE Healthcare Life Sciences) using 50 mM Tris pH 7.5, 50 mM NaCl, 1 mM dithiothreitol, 1 mM MgCl2. Fractions containing the protein were pooled, concentrated as described above, and stored at −80° C.
The full length human COX-2 gene (accession number L15326) was amplified by PCR to generate an EcoRI-HindIII fragment containing an in-frame FLAG tag. This was subcloned into pFastBac 1 (Invitrogen). The COX2 FLAG plasmid was recombined into the baculovirus genome according to the BAC-to-BAC protocol described by Invitrogen. Transfection into Spodoptera frugiperda (Sf9) insect cells was performed using Cellfectin (Invitrogen), according to the manufacturer's protocol. […] Recombinant virus was added at a Multiplicity of Infection (MOI) of 5 and the culture was allowed to continue for 3 days. Cells were harvested using a continuous feed centrifuge run at 2500 g at a rate of approximately 2 L/min with cooling. The resultant cell slurry was re-centrifuged in pots (2500 g, 20 min, 4° C.) and the cell paste was stored at −80° C. […] The suspension was sonicated in 500 mL batches for 8×5 seconds at 10 u amplitude with the medium tip of an MSE probe sonicator and subsequently incubated at 4° C. for 90 min with gentle stirring. The lysate was centrifuged at 12000 rpm for 45 min at 4° C. in a Sorvall SLA1500 rotor. The supernatant (1400 mL) was added to 420 mL of 20 mM Tris-Cl pH 7.4, 150 mM NaCl, 0.1 mM EDTA to reduce the concentration of n-octyl-β-D-glucopyranoside to 1% w/v.
`CC1C[C@H](NC(=O)c2cnc3cc(OC(F)F)c(Cl)cc3c2)C(=O)N1` (mixture of isomers) [Example 133, 6-Chloro-7-(difluoromethoxy)-N-((3S)-5-methyl-2-oxopyrrolidin-3-yl)quinoline-3-carboxamide] was tested, and the IC50 was 10 to 79.4 nM. Work on `CC1CCN1c1cc2ncc(C(=O)N[C@H]3CCNC3=O)cc2cc1F` (mixture of isomers) [Example 171, 6-Fluoro-7-(2-methylazetidin-1-yl)-N—((S)-2-oxopyrrolidin-3-yl)quinoline-3-carboxamide] yielded an IC50 of 10 to 79.4 nM. For `O=C(N[C@@H]1CC[C@@H](C(O)C(F)(F)F)OC1)c1cnc2cc(OC(F)F)ccc2c1` (mixture of isomers) [Example 17, Racemic 7-(Difluoromethoxy)-N-((3R,6S)-6-(2,2,2-trifluoro-1-hydroxyethyl)tetrahydro-2H-pyran-3-yl)quinoline-3-carboxamide], the IC50 was 10 to 79.4 nM. In the case of `CC(C)(O)[C@@H]1CC[C@@H](NC(=O)c2cnc3cc(OC(F)F)ccc3c2)CO1` (racemic) [Example 22, Racemic 7-(Difluoromethoxy)-N-((3s,6r)-6-(2-hydroxypropan-2-yl)tetrahydro-2H-pyran-3-yl)quinoline-3-carboxamide], the IC50 is reported as 10 to 79.4 nM. In the case of `O=C(NC1CC2(CC(NCC(F)(F)F)C2)C1)c1cnc2cc(OC(F)F)c(F)cc2c1` (racemic) [Example 61, 7-(Difluoromethoxy)-6-fluoro-N-(6-((2,22-trifluoroethyl)amino)spiro[3.3]heptan-2-yl)quinoline-3-carboxamide], the IC50 is reported as 10 to 79.4 nM. `CC(NC[C@H]1CC[C@H](NC(=O)c2cnc3cc(OC(F)F)c(F)cc3c2)CC1)C(F)F` (mixture of isomers) [Example 75, 7-(Difluoromethoxy)-N-(trans-4-(((1,1-difluoropropan-2-yl)amino)methyl)cyclohexyl)-6-fluoroquinoline-3-carboxamide] was tested, and the IC50 was 10 to 79.4 nM. In the case of `CC(C)(O)[C@@H]1CC[C@@H](NC(=O)c2cnc3cc(OC(F)F)c(Cl)cc3c2)CO1` (racemic) [Example 124, Racemic 6-chloro-7-(difluoromethoxy)-N-((3r,6s)-6-(2-hydroxypropan-2-yl)tetrahydro-2H-pyran-3-yl)quinoline-3-carboxamide], the IC50 is reported as less than 10 nM. With `CC(N[C@H]1CC[C@H](NC(=O)c2cnc3cc(OC(F)F)c(Cl)cc3c2)CC1)C(F)F` (mixture of isomers) [Example 125, 6-Chloro-7-(difluoromethoxy)-N-(trans-4-((1,1-difluoropropan-2-yl)amino)cyclohexyl)quinoline-3-carboxamide] the IC50 was less than 10 nM. `CN(C)C(=O)[C@@H]1CC[C@@H](NC(=O)c2cnc3cc(OC(F)F)c(Cl)cc3c2)CO1` (racemic) [Example 126, Racemic 6-Chloro-7-(difluoromethoxy)-N-((3r,6s)-6-(dimethylcarbamoyl)tetrahydro-2H-pyran-3-yl)quinoline-3-carboxamide] showed an IC50 of 10 to 79.4 nM. `C[C@]1(O)CC[C@H](NC(=O)c2cnc3cc(OC(F)F)c(Cl)cc3c2)C1` (racemic) [Example 146, Racemic 6-Chloro-7-(difluoromethoxy)-N-((1S,3S)-3-hydroxy-3-methylcyclopentyl)quinoline-3-carboxamide] showed an IC50 of 10 to 79.4 nM. For `CC(N[C@H]1CC[C@H](NC(=O)c2cnc3cc(OC(F)F)c(Br)cc3c2)CC1)C(F)F` (mixture of isomers) [Example 156, 6-Bromo-7-(difluoromethoxy)-N-(trans-4-((1,1-difluoropropan-2-yl)amino)cyclohexyl)quinoline-3-carboxamide], the IC50 was less than 10 nM. In the case of `CC1CCN1c1cc2ncc(C(=O)N[C@H]3CC[C@H](C(C)(C)O)CC3)cc2cc1F` (mixture of isomers) [Example 170, 6-Fluoro-N-(trans-4-(2-hydroxypropan-2-yl)cyclohexyl)-7-(2-methylazetidin-1-yl)quinoline-3-carboxamide], the IC50 is reported as 10 to 79.4 nM. `O=C(N[C@H]1CC[C@H]([C@@H](O)C(F)(F)F)CC1)c1cnc2cc(OC(F)F)ccc2c1` (single isomer, unassigned) [Example 20] was tested, and the IC50 was less than 10 nM. In the case of `O=C(N[C@H]1CC[C@H]([C@H](O)C(F)(F)F)CC1)c1cnc2cc(OC(F)F)ccc2c1` (single isomer, unassigned) [Example 21], the IC50 is reported as less than 10 nM. `O=C(NC1CCNC1=O)c1cnc2cc(OC(F)F)c(Cl)cc2c1` (stereo in doubt) [Example 117, (S)-6-Chloro-7-(difluoromethoxy)-N-(2-oxopyrrolidin-3-yl)quinoline-3-carboxamide, trifluoroacetate] showed an IC50 of less than 10 nM. With `CN(C)C(=O)[C@H]1CC[C@H](NC(=O)c2cnc3cc(OC(F)F)ccc3c2)CC1` [Example 5, 7-(Difluoromethoxy)-N-((trans)-4-(dimethylcarbamoyl)cyclohexyl)quinoline-3-carboxamide] the IC50 was 10 to 79.4 nM. In the case of `CS(=O)(=O)N1CCC(NC(=O)c2cnc3cc(OC(F)F)ccc3c2)CC1` [Example 7, 7-(Difluoromethoxy)-N-(1-(methylsulfonyl)piperidin-4-yl)quinoline-3-carboxamide], the IC50 is reported as 10 to 79.4 nM. In the case of `Cc1cc(NC(=O)c2cnc3cc(OC(F)F)ccc3c2)[nH]n1` [Example 8, 7-(Difluoromethoxy)-N-(3-methyl-1H-pyrazol-5-yl)quinoline-3-carboxamide], the IC50 is reported as 10 to 79.4 nM. Work on `O=C1CC(NC(=O)c2cnc3cc(OC(F)F)ccc3c2)c2ccccc2N1` (stereo not shown) [Example 9, 7-(Difluoromethoxy)-N-(2-oxo-1,2,3,4-tetrahydroquinolin-4-yl)quinoline-3-carboxamide] yielded an IC50 of 10 to 79.4 nM. For `O=C(Nc1nccs1)c1cnc2cc(OC(F)F)ccc2c1` [Example 10, 7-(Difluoromethoxy)-N-(thiazol-2-yl)quinoline-3-carboxamide], the IC50 was 10 to 79.4 nM. `CC(C)(O)[C@H]1C[C@H](NC(=O)c2cnc3cc(OC(F)F)ccc3c2)C1` [Example 11, 7-(Difluoromethoxy)-N-(trans-3-(2-hydroxypropan-2-yl)cyclobutyl)quinoline-3-carboxamide] showed an IC50 of 10 to 79.4 nM. With `CC(C)(O)CO[C@H]1CC[C@H](NC(=O)c2cnc3cc(OC(F)F)ccc3c2)CC1` [Example 12, 7-(Difluoromethoxy)-N-(trans-4-(2-hydroxy-2-methylpropoxy)cyclohexyl)quinoline-3-carboxamide] the IC50 was 10 to 79.4 nM. `CC(O)[C@H]1CC[C@H](NC(=O)c2cnc3cc(OC(F)F)ccc3c2)CC1` (stereo partly drawn) [Example 13, 7-(Difluoromethoxy)-N-(trans-4-(-1-hydroxyethyl)cyclohexyl)quinoline-3-carboxamide] was tested, and the IC50 was 10 to 79.4 nM. Compound `O=C(N[C@H]1CC[C@H](C(O)C2CC2)CC1)c1cnc2cc(OC(F)F)ccc2c1` (stereo partly drawn) [Example 14, N-(trans-4-(-Cyclopropyl(hydroxy)methyl)cyclohexyl)-7-(difluoromethoxy)quinoline-3-carboxamide] has an IC50 of less than 10 nM. `O=C(N[C@H]1CC[C@H](C(O)C(F)(F)F)CC1)c1cnc2cc(OC(F)F)ccc2c1` (stereo partly drawn) [Example 15, 7-(Difluoromethoxy)-N-(trans-4-(2,2,2-trifluoro-1-hydroxyethyl)cyclohexyl)quinoline-3-carboxamide] was tested, and the IC50 was less than 10 nM. With `CC(O)CO[C@H]1CC[C@H](NC(=O)c2cnc3cc(OC(F)F)ccc3c2)CC1` (stereo partly drawn) [Example 16, 7-(Difluoromethoxy)-N-(trans-4-(2-hvdroxypropoxy)cyclohexyl)quinoline-3-carboxamide] the IC50 was 10 to 79.4 nM.

Same assay, conditions: in at least one experimental run; read-out: H-PGDS pIC50 value (converted)
Work on `O=C(N[C@H]1CC[C@H]([C@@H](O)C(F)(F)F)CC1)c1cnc2cc(OC(F)F)ccc2c1` (single isomer, unassigned) [Example 20] yielded an IC50 of 7.94 nM. For `O=C(N[C@H]1CC[C@H](C(O)C(F)(F)F)CC1)c1cnc2cc(OC(F)F)ccc2c1` (stereo partly drawn) [Example 15, 7-(Difluoromethoxy)-N-(trans-4-(2,2,2-trifluoro-1-hydroxyethyl)cyclohexyl)quinoline-3-carboxamide], the IC50 was 7.94 nM.
